In PubChem BioAssay AID1963964 (Molecular Pharmacology Branch, DTP, NCI, 2024):

Test system: 997726-040-R-J2-PDC tumor spheroids, viability
Experiment: Anticancer human tumor 997726-040-R-J2-PDC patient-derived squamous cell lung carcinoma cell line growth inhibition [PI3K]
Conditions: spheroids with HUVEC and MSC; for IC50: curve of first compound; for viability, T/C: stronger effect = lower value
Source text: Combinatorial screen of targeted agents with the PI3K inhibitors inavolisib, alpelisib, duvelisib, and copanlisib in multi-cell type tumor spheroids
A high-throughput screen of multi-cell type tumor spheroids was designed to identify active combinations of targeted small molecules and PI3K pathway inhibitors. Complex spheroids include a stromal component modeled by human endothelial cells (HUVEC) and fibroblasts modeled by human mesenchymal stem cells (MSCs). The concentration ranges selected for each drug and investigational agent were based upon clinically achievable concentrations if the clinical Cmax of the agent was known.
Compounds. The drugs and investigational agents: inavolisib (NSC800729), alpelisib (NSC765974), duvelisib (NSC772469), copanlisib (NSC816437), ipatasertib (NSC767898), afuresertib (NSC778305), talazoparib (NSC767125), sapanisertib (NSC764658), selumetinib (NSC741078), tovorafenib (DAY101, NSC766906), vemurafenib (NSC761431), ravoxertinib (NSC781343), sotorasib (NSC818433), MRTX1133 (NSC 836407), abemaciclib (NSC 768073), palbociclib (NSC758247), venetoclax (NSC 766270), SY5609 (NSC837396), enzalutamide (NSC755605), and darolutamide (NSC825331), were obtained from the National Cancer Institute (NCI) Developmental Therapeutics Program Chemical Repository. The FDA-approved anticancer drug set is available from the NCI Developmental Therapeutics Program. […] The stock solutions were prepared in dimethyl sulfoxide (DMSO, Sigma-Aldrich, St. Louis, MO, cat. D2650) at 800-fold the tested concentration and stored at -70 degrees C prior to their use. All drugs and investigational agents were tested over a range starting from a high concentration at or near the clinical Cmax and decreasing in half-log increments. If the clinical Cmax for an agent had not been determined, the highest concentration tested was 10 microM.
Cell Culture. All cells were maintained in an incubator at 37 degrees C and 5% CO2 with 95% humidity. The PDC lines were cultured according to standard operating procedures established by the NCI PDMR (https://pdmr.cancer.gov/sops/default.htm). All PDCs were thawed and cultured in Matrigel-coated flasks prepared with a working solution of 1X Ham's F-12 nutrient mix, without supplementation (Invitrogen, Waltham, MA, cat. 11765054), 100 U/mL penicillin-streptomycin (Invitrogen, cat. 15140122), and 2.5% Matrigel (Corning Inc., Corning, NY, cat. 354248) for the first three passages. The 354836-022-R-J1-PDC, 475296-252-R-J1-PDC, and 997726-040-R-J2-PDC lines were cultured in 6A media, which includes advanced DMEM/F-12 (Thermo Fisher Scientific, cat. 12634028), 10 mM HEPES (Thermo Fisher Scientific, cat. 15630080), 1X GlutaMAX supplement (Thermo Fisher Scientific, cat. 35050061), 0.1 mg/mL primocin (InvivoGen, San Diego, CA, cat. ant-pm-2), 10% defined fetal bovine serum, heat inactivated (HyClone Laboratories Inc., Logan, UT, cat. SH30070.03HI), 50% L-WRN conditioned media (ATCC, cat. CRL-3276), 1.25 mM N-Acetyl-L-cysteine (Sigma-Aldrich, cat. A9165), 10 mM nicotinamide (Sigma-Aldrich, cat. N0636), 1X B-27 supplement (Thermo Fisher Scientific, cat. 17504044), 1X N-2 supplement (Thermo Fisher Scientific, cat. 17502048), and 10 microM Y-27632 dihydrochloride (Tocris Bioscience, Bristol, United Kingdom, cat. 1254). The 624824-186-R-J2-PDC line was cultured in 6C/Colon 1B media, which includes all 6A media components plus 50 ng/mL human EGF recombinant protein (Thermo Fisher Scientific, cat. PHG0311). […]
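Also: spheroids exposed to compounds for seven days before readout.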

**Q.** For `Cn1ncnc1[C@H]1c2n[nH]c(=O)c3cc(F)cc(c23)N[C@@H]1c1ccc(F)cc1` + CC(Nc1ccc2c(c1)OCCn1cc(N3C(=O)OCC3C(F)F)nc1-2)C(N)=O, which IC50 (second compound 0.00316 µM) is on record?
**A.** Its IC50 is greater than 100 nM.

**Q.** What about the IC50 (second compound 0.01 µM) of the same compound?
**A.** Its IC50 is greater than 100 nM.

**Q.** What about the IC50 (second compound 0.0316 µM) of the same compound?
**A.** Its IC50 is greater than 100 nM.

**Q.** And the IC50 (second compound 0.1 µM)?
**A.** The IC50 was less than 0.316 nM.

**Q.** And the IC50 (second compound 0.316 µM)?
**A.** The IC50 was less than 0.316 nM.

**Q.** And the IC50 (second compound 1 µM)?
**A.** The IC50 was less than 0.316 nM.

**Q.** What about the viability, T/C (second compound 0.00316 µM, first compound 0.000316 µM) of the same compound?
**A.** Its viability, T/C is 84.4%.

**Q.** What about the viability, T/C (second compound 0.00316 µM, first compound 0.001 µM) of the same compound?
**A.** Its viability, T/C is 99.1%.

**Q.** And the viability, T/C (second compound 0.00316 µM, first compound 0.00316 µM)?
**A.** The viability, T/C was 95.7%.

**Q.** And the viability, T/C (second compound 0.00316 µM, first compound 0.01 µM)?
**A.** The viability, T/C was 87.5%.

**Q.** And the viability, T/C (second compound 0.00316 µM, first compound 0.0316 µM)?
**A.** Its viability, T/C is 99.7%.

**Q.** And the viability, T/C (second compound 0.00316 µM, first compound 0.1 µM)?
**A.** Its viability, T/C is 89.7%.

**Q.** And the viability, T/C (second compound 0.01 µM, first compound 0.000316 µM)?
**A.** The viability, T/C was 89.6%.

**Q.** And the viability, T/C (second compound 0.01 µM, first compound 0.001 µM)?
**A.** Its viability, T/C is 92.4%.

**Q.** And the viability, T/C (second compound 0.01 µM, first compound 0.00316 µM)?
**A.** The viability, T/C was 75.9%.

**Q.** What about the viability, T/C (second compound 0.01 µM, first compound 0.01 µM) of the same compound?
**A.** The viability, T/C was 71.4%.

**Q.** And the viability, T/C (second compound 0.01 µM, first compound 0.0316 µM)?
**A.** Its viability, T/C is 84.3%.

**Q.** And the viability, T/C (second compound 0.01 µM, first compound 0.1 µM)?
**A.** The viability, T/C was 75.6%.

**Q.** And the viability, T/C (second compound 0.0316 µM, first compound 0.000316 µM)?
**A.** The viability, T/C was 63.2%.

**Q.** And the viability, T/C (second compound 0.0316 µM, first compound 0.001 µM)?
**A.** The viability, T/C was 72.9%.

**Q.** What about the viability, T/C (second compound 0.0316 µM, first compound 0.00316 µM) of the same compound?
**A.** The viability, T/C was 66.2%.

**Q.** And the viability, T/C (second compound 0.0316 µM, first compound 0.01 µM)?
**A.** The viability, T/C was 71.5%.

**Q.** And the viability, T/C (second compound 0.0316 µM, first compound 0.0316 µM)?
**A.** Its viability, T/C is 70.2%.

**Q.** And the viability, T/C (second compound 0.0316 µM, first compound 0.1 µM)?
**A.** Its viability, T/C is 60.2%.

**Q.** And the viability, T/C (second compound 0.1 µM, first compound 0.000316 µM)?
**A.** The viability, T/C was 49.4%.

**Q.** What about the viability, T/C (second compound 0.1 µM, first compound 0.001 µM) of the same compound?
**A.** The viability, T/C was 39.8%.

**Q.** What about the viability, T/C (second compound 0.1 µM, first compound 0.00316 µM) of the same compound?
**A.** The viability, T/C was 43.6%.

**Q.** And the viability, T/C (second compound 0.1 µM, first compound 0.01 µM)?
**A.** Its viability, T/C is 45.4%.

**Q.** What about the viability, T/C (second compound 0.1 µM, first compound 0.0316 µM) of the same compound?
**A.** The viability, T/C was 41.8%.

**Q.** What about the viability, T/C (second compound 0.1 µM, first compound 0.1 µM) of the same compound?
**A.** Its viability, T/C is 39%.

**Q.** What about the viability, T/C (second compound 0.316 µM, first compound 0.000316 µM) of the same compound?
**A.** Its viability, T/C is 31.2%.

**Q.** What about the viability, T/C (second compound 0.316 µM, first compound 0.001 µM) of the same compound?
**A.** The viability, T/C was 36%.

**Q.** What about the viability, T/C (second compound 0.316 µM, first compound 0.00316 µM) of the same compound?
**A.** Its viability, T/C is 32.4%.

**Q.** What about the viability, T/C (second compound 0.316 µM, first compound 0.01 µM) of the same compound?
**A.** The viability, T/C was 32.4%.

**Q.** And the viability, T/C (second compound 0.316 µM, first compound 0.0316 µM)?
**A.** Its viability, T/C is 33.4%.

**Q.** And the viability, T/C (second compound 0.316 µM, first compound 0.1 µM)?
**A.** The viability, T/C was 30.9%.

**Q.** And the viability, T/C (second compound 1 µM, first compound 0.000316 µM)?
**A.** The viability, T/C was 27.5%.

**Q.** And the viability, T/C (second compound 1 µM, first compound 0.001 µM)?
**A.** Its viability, T/C is 26.7%.

**Q.** What about the viability, T/C (second compound 1 µM, first compound 0.00316 µM) of the same compound?
**A.** The viability, T/C was 26.6%.

**Q.** And the viability, T/C (second compound 1 µM, first compound 0.01 µM)?
**A.** Its viability, T/C is 28.9%.

**Q.** What about the viability, T/C (second compound 1 µM, first compound 0.0316 µM) of the same compound?
**A.** Its viability, T/C is 31.1%.

**Q.** What about the viability, T/C (second compound 1 µM, first compound 0.1 µM) of the same compound?
**A.** Its viability, T/C is 28.8%.
